Test results as given in patent US7880014B2, “Angiotensin II receptor antagonists” (Merck Sharp & Dohme Corp., priority 2006, dated 2011).

What was measured:
CYP3A4 = biological target: T1, CYP3A4 (Homo sapiens, UniProt P08684); test: CYP3A4 Time-Dependent Inhibition Assay (pooled human liver microsomes, testosterone 6β-hydroxylation); format: in vitro ADME; conditions: human liver microsomes 1 mg/mL, preincubation 5 to 30 min
T1 construct: Pooled human liver microsomes (1 mg/mL) were preincubated at 37° C; from tissue; host or cells: pooled human liver microsomes
Description: The incubation mixtures were diluted 10-fold with the same buffer containing 250 μM testosterone and an NADPH-generating system. The incubation was continued for an additional 10 min to monitor the extent of testosterone 6β-hydroxylation. The first order rate constants (kobs) for inactivation at 10 and 50 μM were calculated from the negative slope of the lines by linear regression analysis of the natural logarithm of the remaining activity as a function of time using KaleidaGraph Synergy Software (Reading, Pa.).

rabbit aortic slices = test: vessel relaxation assay (in vitro, tissue-based, rabbit aortic slices); format: cell-based

T1 sequence (P08684 whole entry): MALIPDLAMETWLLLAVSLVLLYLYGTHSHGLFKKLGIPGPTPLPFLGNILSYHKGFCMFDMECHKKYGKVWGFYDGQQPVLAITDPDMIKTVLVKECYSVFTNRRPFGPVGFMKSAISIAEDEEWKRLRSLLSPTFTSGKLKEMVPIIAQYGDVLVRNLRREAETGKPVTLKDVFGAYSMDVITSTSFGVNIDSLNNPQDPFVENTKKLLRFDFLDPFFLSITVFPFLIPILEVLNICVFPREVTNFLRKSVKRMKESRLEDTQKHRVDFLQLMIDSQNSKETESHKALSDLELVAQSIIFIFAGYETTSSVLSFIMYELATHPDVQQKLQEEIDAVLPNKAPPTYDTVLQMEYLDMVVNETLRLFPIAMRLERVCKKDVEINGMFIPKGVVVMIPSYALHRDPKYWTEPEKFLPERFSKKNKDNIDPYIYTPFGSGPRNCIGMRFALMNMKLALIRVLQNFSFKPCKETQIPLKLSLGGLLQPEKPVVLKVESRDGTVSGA

CCCCc1nc(Cl)c(C(=O)OC(C)OC(=O)OCCCC[C@H](CO[N+](=O)[O-])O[N+](=O)[O-])n1Cc1ccc(-c2ccccc2-c2nnn[nH]2)cc1 (single isomer, unassigned) [Compound 2]
Rate Constant (kobs) at 10 μM (CYP3A4): 0.026 min⁻¹ | Rate Constant (kobs) at 50 μM (CYP3A4): 0.037 min⁻¹

CCCCc1nc(Cl)c(C(=O)OC(C)OC(=O)OCCCC[C@H](CO[N+](=O)[O-])O[N+](=O)[O-])n1Cc1ccc(-c2ccccc2-c2nnn[nH]2)cc1 (single isomer, unassigned) [Compound 3]
Rate Constant (kobs) at 10 μM (CYP3A4): ~0.077 min⁻¹ | Rate Constant (kobs) at 50 μM (CYP3A4): 0.076 min⁻¹ | EC50 (rabbit aortic slices): 1.3 µM
